Key:
[1] = mn = molality of the nth substance listed, in mol/kg; details: 101 kPa, Liquid; for viscosity: Capillary tube (Ostwald / Ubbelohde) method; for mass density: Vibrating tube method
[2] = 101.33 kPa, Liquid; for viscosity: Capillary tube (Ostwald / Ubbelohde) method; for mass density: Vibrating tube method

Oc1cccc(O)c1 [1,3-benzenediol] + CCCCO
[1]
Details | mass density, 293.15 K [kg/m3] | mass density, 303.15 K [kg/m3] | mass density, 313.15 K [kg/m3] | mass density, 323.15 K [kg/m3] | mass density, 333.15 K [kg/m3] | viscosity, 293.15 K [mPa·s] | viscosity, 303.15 K [mPa·s] | viscosity, 313.15 K [mPa·s] | viscosity, 323.15 K [mPa·s] | viscosity, 333.15 K [mPa·s]
m1 = 1.016 | 844.32 | 836.69 | 828.92 | 821.01 | 812.92 | 4.518 | 3.357 | 2.54 | 1.972 | 1.674
m1 = 2.196 | 878.29 | 870.07 | 862.36 | 854.51 | 846.52 | 7.007 | 5.06 | 3.71 | 2.809 | 2.33
m1 = 3.586 | 910.51 | 902.98 | 895.33 | 887.57 | 879.68 | 11.56 | 8.021 | 5.552 | 4.091 | 3.274
m1 = 5.247 | 942.6 | 935.1 | 927.53 | 919.86 | 912.09 | 19.75 | 12.64 | 8.601 | 6.096 | 4.84
m1 = 7.265 | 974.13 | 966.7 | 959.2 | 951.6 | 943.92 | 34.34 | 20.69 | 13.18 | 8.804 | 6.635

Oc1cccc(O)c1 [1,3-benzenediol] + CCCO
[1]
Details | mass density, 293.15 K [kg/m3] | mass density, 303.15 K [kg/m3] | mass density, 313.15 K [kg/m3] | mass density, 323.15 K [kg/m3] | mass density, 333.15 K [kg/m3] | viscosity, 293.15 K [mPa·s] | viscosity, 303.15 K [mPa·s] | viscosity, 313.15 K [mPa·s] | viscosity, 323.15 K [mPa·s] | viscosity, 333.15 K [mPa·s]
m1 = 1.252 | 846.41 | 838.23 | 830.12 | 821.85 | 813.35 | 3.605 | 2.74 | 2.133 | 1.675 | 1.374
m1 = 2.709 | 886.87 | 878.7 | 870.62 | 862.49 | 854.18 | 6.043 | 4.375 | 3.292 | 2.465 | 1.952
m1 = 4.423 | 924.61 | 916.62 | 908.69 | 900.65 | 892.48 | 10.37 | 7.225 | 5.137 | 3.736 | 2.862
m1 = 6.471 | 960.5 | 952.55 | 944.74 | 936.83 | 928.84 | 18.52 | 12.05 | 8.179 | 5.696 | 4.195
m1 = 8.959 | 994.1 | 986.39 | 978.72 | 970.97 | 963.1 | 33.22 | 20.29 | 12.82 | 8.199 | 6.412

Oc1cccc(O)c1 [1,3-benzenediol] + CCO
[1]
Details | mass density, m1 = 1.634 [kg/m3] | mass density, m1 = 3.537 [kg/m3] | mass density, m1 = 5.77 [kg/m3] | mass density, m1 = 8.441 [kg/m3] | mass density, m1 = 11.69 [kg/m3] | viscosity, m1 = 1.634 [mPa·s] | viscosity, m1 = 3.537 [mPa·s] | viscosity, m1 = 5.77 [mPa·s] | viscosity, m1 = 8.441 [mPa·s] | viscosity, m1 = 11.69 [mPa·s]
293.15 K | 847.02 | 897.16 | 941.64 | 981.15 | 1017.03 | 2.136 | 3.742 | 6.373 | 11.33 | 21.33
303.15 K | 838.53 | 889.03 | 933.72 | 973.42 | 1007.47 | 1.707 | 3.078 | 4.872 | 8.487 | 15.56
313.15 K | 830.12 | 880.71 | 925.87 | 965.64 | 1002.06 | 1.421 | 2.294 | 3.648 | 5.94 | 9.505
323.15 K | 821.65 | 872.63 | 918.18 | 957.95 | 994.49 | 1.265 | 1.947 | 2.864 | 4.295 | 6.578

Oc1cccc(O)c1 [1,3-benzenediol] + O
[1]
Details | mass density, 293.15 K [kg/m3] | mass density, 303.15 K [kg/m3] | mass density, 313.15 K [kg/m3] | mass density, 323.15 K [kg/m3] | mass density, 333.15 K [kg/m3] | viscosity, 293.15 K [mPa·s] | viscosity, 303.15 K [mPa·s] | viscosity, 313.15 K [mPa·s] | viscosity, 323.15 K [mPa·s] | viscosity, 333.15 K [mPa·s]
m1 = 2.361 | 1041.62 | 1037.63 | 1032.94 | 1027.74 | 1021.98 | 1.615 | 1.25 | 1.012 | 0.8329 | 0.6974
m1 = 4.819 | 1073.42 | 1068.64 | 1062.96 | 1057.26 | 1050.76 | 2.481 | 1.874 | 1.474 | 1.181 | 0.9741
m1 = 7.567 | 1099.32 | 1093.72 | 1087.57 | 1081.27 | 1074.55 | 3.681 | 2.72 | 2.089 | 1.629 | 1.311
m1 = 10.59 | 1120.13 | 1113.97 | 1107.55 | 1100.86 | 1094.26 | 5.347 | 3.844 | 2.867 | 2.193 | 1.727
m1 = 13.9 | 1137.42 | 1130.96 | 1124.23 | 1117.62 | 1110.53 | 7.61 | 5.36 | 3.9 | 2.909 | 2.247

CCO [ethanol]
[2]
Details | mass density [kg/m3] | viscosity [mPa·s]
293.15 K | 790.08 | 1.211
303.15 K | 781 | 0.9977
313.15 K | 772.31 | 0.8319
323.15 K | 763.35 | 0.6876
333.15 K | 754.2 | 0.5806

Source: the NIST ThermoML archive (doi:10.1021/je101173w)
